We go through one substance from patent publication US10322125B2, “TGF-beta enhancing compositions for cartilage repair and methods related thereto” (EMORY UNIVERSITY, priority 2013, dated 2019).

This experiment deals with 3TP-Lux luciferase reporter (TGF-β-responsive region of the PAI-1 gene) in C2C12 cells. The experiment is described as follows: C2C12 cell-based Dual-Luciferase reporter screening assay for TGF-β activity (3TP-Lux). Details: species or system mouse. Particulars: FIG. 6. As for the experimental part:
The C2C12 cells, a mouse myoblast cell line, were obtained from the American Type Culture Collection (ATCC, Manassas, 8 VA). Cells were grown in Dulbecco's modified Eagle medium (DMEM, Gibco Life Technologies, Rockville, Md.) with 10% non heat inactivated fetal bovine serum (Atlanta Biologicals, Norcross, Ga.). The C2C12 cells at passages 4 to 7 were subcultured in T-75 cm2 flasks at 37° C. in a humidified atmosphere containing 5% CO2. When the flasks reached 80% confluence, the cells were trypsinized and seeded in triplicate at 50,000 cells/well in a 12-well plate for the Dual-Luciferase reporter assay.
The C2C12 cells were seeded at a 50,000 cell/well in 12-well plates on day 1. […]
For each well, a total of 1 μg DNA was used for the cotransfection and concentration of pGL4.74 Renilla luciferase vector was 1/15 of 3TP-Lux reporter plasmid. […] On day 5, the luciferase activity was measured using the luciferase assay kit (Promega, Madison, Wis.) according to the manufacturer's instructions on a luminescence reader (VictorTMX Light, PerkinElmer Life and Analytical Sciences, Waltham, Mass.). […]
In general terms: Reporter assays use an easily measured gene product as a stand-in for the process of interest.

For the substance “TGF-β: Transforming growth factor beta, a secreted protein; cells were treated with TGF-β1 in the reporter assay”, the “reporter response at higher TGF-β doses” value (doses ranging from 10 ng/ml to 100 ng/ml of TGF-β, compared with 5 ng/ml dose, DMSO instead of compounds) is listed as “did not increase reporter response beyond 5 ng/ml dose”. Also, the “TGF-β dose at which maximum reporter response was reached” value (luciferase reporter assay, DMSO solvent instead of compounds) is 5 ng/mL.
